Experimental data as given in US12290073B2, “Anti-microbial compound and methods of use” (SHENZHEN UNIVERSITY, priority 2019, dated 2025).
Read-outs that look alike come from different tables or passages of the source.

Assays:
Test in all cases: Anti-microbial rate of finished cotton textiles, FZ/T73023-2006 D.8 shocking method
Assay type in all cases: cell-based
[1] = tested on: Staphylococcus Aureus (S. aureus, ATCC 6538); conditions: Staphylococcus aureus, ATCC6538, finishing liquid 1.0 wt %, read-out: Anti-microbial rate (%) of cotton textiles finished with compound E (1.0 wt %), S. aureus
Excerpt: (§1) Each of the reaction products (i.e., compound E) according to Examples 1-21 was used to prepare an anti-microbial agent (e.g., a finishing liquid), and the anti-microbial effects were different depending on compound E and conditions of use.
(§2) Remarks: 1) in the data of anti-microbial rate in Table 5: Examples 1-9 used a soaking-rolling-drying process to finish cotton fabric, where the bath ratio (i.e., the ratio of the weight of a liquid containing compound E to the weight of the cotton fabric) was 20:1, the residual liquid ratio was 90%, and the drying process was conducted at 85° C. for 30 minutes; Examples 10-18 were prepared by a soaking-high speed spinning-drying method, where the bath ratio was 20:1, the residual liquid ratio was 90%, and the drying process was conducted at 85° C. for 20 min; Examples 19-21 were prepared by a spraying-spinning-drying process with a bath ratio of 30:1, a residual liquid ratio of 85% after drying, and the drying process was conducted at 105° C. for 5 minutes.
(§3) 2) Table 5 data test method: FZ/T73023-2006 anti-microbial textiles D.8 shocking method. In addition, the inhibition zone method (FZ/T73023-2006 anti-microbial textiles—Appendix E—inhibition zone method) was used to test whether the active compound (E) was released from the finished cotton textiles, the inhibition zone test result of the 21 examples and zwitterions were 0 mm, and thus compound E was not released from the finished cotton textiles. The anti-microbial finishing agent used in the comparative experiment was zwitterion with the molecular structure
(§4) 3) The composition of the finishing liquid in Table 5 was: compound E 1.0 wt %, sodium bicarbonate 1.0 wt %, and the rest of the finishing liquid was water.

[2] = tested on: Escherichia Coli (E. coli, ATCC25922); conditions: Escherichia coli, ATCC25922, finishing liquid 1.0 wt %, read-out: Anti-microbial rate (%) of cotton textiles finished with compound E (1.0 wt %), E. coli
Excerpt: as §1, §2, §3, §4

[3] = tested on: Candida Albicans (C. albicans 10231); conditions: Candida albicans, finishing liquid 1.0 wt %, read-out: Anti-microbial rate (%) of cotton textiles finished with compound E (1.0 wt %), C. albicans
Excerpt: as §1, §2, §3, §4

Cc1nc(Cl)nc(OCCn2cc[n+](C)c2)n1 [Example 12]
killing at 1 % ([1]; times of washing 0): 100% | killing at 1 % ([1]; times of washing 10): 99.9% | killing at 1 % ([1]; times of washing 50): 99.5% | killing at 1 % ([2]; times of washing 0): 100% | killing at 1 % ([2]; times of washing 10): 99.9% | killing at 1 % ([2]; times of washing 50): 98.9% | killing at 1 % ([3]; times of washing 0): 99.9% | killing at 1 % ([3]; times of washing 10): 99.9% | killing at 1 % ([3]; times of washing 50): 91.9%

C[N+](C)(C)COc1nc(Cl)nc(Cl)n1 [Example 5]
killing at 1 % ([1]; times of washing 0): 100% | killing at 1 % ([1]; times of washing 10): 99.9% | killing at 1 % ([1]; times of washing 50): 99.9% | killing at 1 % ([2]; times of washing 0): 100% | killing at 1 % ([2]; times of washing 10): 99.9% | killing at 1 % ([2]; times of washing 50): 99.1% | killing at 1 % ([3]; times of washing 0): 99.9% | killing at 1 % ([3]; times of washing 10): 99.9% | killing at 1 % ([3]; times of washing 50): 97.9%

C[N+](C)(C)CCCCCCCCCCCCCCCCCCN(CCCCCCCCCCCCCCCCCC[N+](C)(C)C)CCOc1nc(Cl)nc(Cl)n1 [Example 18]
killing at 1 % ([1]; times of washing 0): 100% | killing at 1 % ([1]; times of washing 10): 99.9% | killing at 1 % ([1]; times of washing 50): 98.9% | killing at 1 % ([2]; times of washing 0): 100% | killing at 1 % ([2]; times of washing 10): 99.9% | killing at 1 % ([2]; times of washing 50): 97.9% | killing at 1 % ([3]; times of washing 0): 99.9% | killing at 1 % ([3]; times of washing 10): 99.9% | killing at 1 % ([3]; times of washing 50): 96.9%

C[n+]1ccc(CNc2nc(Cl)nc([N+](=O)[O-])n2)cc1 [Example 9]
killing at 1 % ([1]; times of washing 0): 100% | killing at 1 % ([1]; times of washing 10): 99.9% | killing at 1 % ([1]; times of washing 50): 99.9% | killing at 1 % ([2]; times of washing 0): 100% | killing at 1 % ([2]; times of washing 10): 99.9% | killing at 1 % ([2]; times of washing 50): 99.9% | killing at 1 % ([3]; times of washing 0): 99.9% | killing at 1 % ([3]; times of washing 10): 99.9% | killing at 1 % ([3]; times of washing 50): 99.2%

C[N+](C)(CCCS(=O)(=O)[O-])CCOc1nc(Cl)nc(Cl)n1 [Comparative Experiment, reference compound]
killing at 1 % ([1]; times of washing 0): 99.9% | killing at 1 % ([1]; times of washing 10): 86% | killing at 1 % ([1]; times of washing 50): 80% | killing at 1 % ([2]; times of washing 0): 99.9% | killing at 1 % ([2]; times of washing 10): 83% | killing at 1 % ([2]; times of washing 50): 75% | killing at 1 % ([3]; times of washing 0): 95% | killing at 1 % ([3]; times of washing 10): 78% | killing at 1 % ([3]; times of washing 50): 69%

CCCCCCCC[N+](C)(C)CC(C)Oc1nc(Cl)nc(Cl)n1 (stereo not drawn) [Example 6]
killing at 1 % ([1]; times of washing 0): 100% | killing at 1 % ([1]; times of washing 10): 99.9% | killing at 1 % ([1]; times of washing 50): 99.9% | killing at 1 % ([2]; times of washing 0): 100% | killing at 1 % ([2]; times of washing 10): 99.9% | killing at 1 % ([2]; times of washing 50): 99.5% | killing at 1 % ([3]; times of washing 0): 99.9% | killing at 1 % ([3]; times of washing 10): 99.9% | killing at 1 % ([3]; times of washing 50): 97.9%

C[n+]1ccn(CCCCCCCCCCCCCCCCCCOc2nc(Cl)nc(Cl)n2)c1 [Example 13]
killing at 1 % ([1]; times of washing 0): 100% | killing at 1 % ([1]; times of washing 10): 99.9% | killing at 1 % ([1]; times of washing 50): 99.9% | killing at 1 % ([2]; times of washing 0): 100% | killing at 1 % ([2]; times of washing 10): 99.9% | killing at 1 % ([2]; times of washing 50): 99.5% | killing at 1 % ([3]; times of washing 0): 99.9% | killing at 1 % ([3]; times of washing 10): 99.9% | killing at 1 % ([3]; times of washing 50): 98.9%

CCCCCCCCCCCC[N+](C)(C)CCN(CCOc1nc(Cl)nc(Cl)n1)CC[N+](C)(C)CCCCCCCCCCCC [Example 17]
killing at 1 % ([1]; times of washing 0): 100% | killing at 1 % ([1]; times of washing 10): 99.9% | killing at 1 % ([1]; times of washing 50): 99.9% | killing at 1 % ([2]; times of washing 0): 100% | killing at 1 % ([2]; times of washing 10): 99.9% | killing at 1 % ([2]; times of washing 50): 99.5% | killing at 1 % ([3]; times of washing 0): 99.9% | killing at 1 % ([3]; times of washing 10): 99.9% | killing at 1 % ([3]; times of washing 50): 99.3%
